Active and inactive are the calls of the source. No cut-off for these calls is given here.
Key:
[1] = test system: ES-2; assay: Antiproliferative activity against human ES2 cells assessed as reduction in cell viability measured after 7 days; format: functional, cell-based; conditions: ES-2, 168 h
[2] = test system: MDA-MB-231; assay: Antiproliferative activity against human MDA-MB-231 cells assessed as reduction in cell viability measured after 7 days; format: functional, cell-based; conditions: MDA-MB-231, 168 h
[3] = molecular target: Histone deacetylase; assay: Inhibition of HDAC derived from human HeLa cell nucleus; format: subcellular
[4] = molecular target: Poly [ADP-ribose] polymerase 1 (Homo sapiens, UniProt P09874); assay: Inhibition of PARP-1 derived from human HeLa cell nucleus; format: subcellular
[5] = test system: CAPAN-1; assay: Antiproliferative activity against human CAPAN-1 cells assessed as reduction in cell viability; format: functional, cell-based
[6] = test system: A549; assay: Antiproliferative activity against human A549 cells assessed as reduction in cell viability; format: functional, cell-based
[7] = test system: DU-145; assay: Antiproliferative activity against human DU-145 cells assessed as reduction in cell viability; format: functional, cell-based
[8] = test system: HCC1937; assay: Antiproliferative activity against human HCC1937 cells assessed as reduction in cell viability; format: functional, cell-based
[9] = test system: ES-2; assay: Upregulation of Ac-HH3 expression in human ES2 cells at 10 uM by Western blot analysis; format: functional, cell-based
[10] = test system: MDA-MB-231; assay: Inhibition of cell migration in human MDA-MB-231 cells at 3 to 10 uM measured upto 48 hrs by wound healing assay; format: functional, cell-based; conditions: dose 3-10 µM
[11] = molecular target: Histone deacetylase 2 (Homo sapiens, UniProt Q92769); assay: Inhibition of HDAC2 (unknown origin)
[12] = Cytotoxicity against human EA.hy 926 assessed as inhibition of cell growth; format: toxicity, cell-based; conditions: EA.hy 926 cells
[13] = molecular target: Histone deacetylase 3 (Homo sapiens, UniProt O15379); assay: Inhibition of HDAC3 (unknown origin)
[14] = molecular target: T1, Histone deacetylase 8 (Homo sapiens, UniProt Q9BY41); assay: Inhibition of HDAC8 (unknown origin)
T1 sequence (Q9BY41 whole entry): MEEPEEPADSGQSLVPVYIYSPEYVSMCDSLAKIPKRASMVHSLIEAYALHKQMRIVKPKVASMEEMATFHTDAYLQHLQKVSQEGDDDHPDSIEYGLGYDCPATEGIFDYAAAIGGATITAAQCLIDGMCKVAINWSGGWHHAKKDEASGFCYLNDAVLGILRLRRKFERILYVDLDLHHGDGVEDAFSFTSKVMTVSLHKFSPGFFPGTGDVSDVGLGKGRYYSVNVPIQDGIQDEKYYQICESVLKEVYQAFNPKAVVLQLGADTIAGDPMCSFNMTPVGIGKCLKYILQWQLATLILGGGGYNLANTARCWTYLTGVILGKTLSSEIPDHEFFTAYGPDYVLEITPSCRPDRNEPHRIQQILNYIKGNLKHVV

[15] = molecular target: Vascular endothelial growth factor receptor 2 (Homo sapiens, UniProt P35968); assay: Inhibition of VEGFR2 (unknown origin)
[16] = test system: ES-2; assay: Upregulation of Ac-tubulin expression in human ES2 cells at 0.3 uM by Western blot analysis; format: functional, cell-based
[17] = molecular target: Histone deacetylase 4 (Homo sapiens, UniProt P56524); assay: Inhibition of HDAC4 (unknown origin)
[18] = test system: ES-2; assay: Upregulation of Ac-HH4 expression in human ES2 cells at 10 uM by Western blot analysis; format: functional, cell-based
[19] = molecular target: T2, Protein deacetylase HDAC6 (Homo sapiens, UniProt Q9UBN7); assay: Inhibition of HDAC6 (unknown origin)
T2 sequence (Q9UBN7 whole entry): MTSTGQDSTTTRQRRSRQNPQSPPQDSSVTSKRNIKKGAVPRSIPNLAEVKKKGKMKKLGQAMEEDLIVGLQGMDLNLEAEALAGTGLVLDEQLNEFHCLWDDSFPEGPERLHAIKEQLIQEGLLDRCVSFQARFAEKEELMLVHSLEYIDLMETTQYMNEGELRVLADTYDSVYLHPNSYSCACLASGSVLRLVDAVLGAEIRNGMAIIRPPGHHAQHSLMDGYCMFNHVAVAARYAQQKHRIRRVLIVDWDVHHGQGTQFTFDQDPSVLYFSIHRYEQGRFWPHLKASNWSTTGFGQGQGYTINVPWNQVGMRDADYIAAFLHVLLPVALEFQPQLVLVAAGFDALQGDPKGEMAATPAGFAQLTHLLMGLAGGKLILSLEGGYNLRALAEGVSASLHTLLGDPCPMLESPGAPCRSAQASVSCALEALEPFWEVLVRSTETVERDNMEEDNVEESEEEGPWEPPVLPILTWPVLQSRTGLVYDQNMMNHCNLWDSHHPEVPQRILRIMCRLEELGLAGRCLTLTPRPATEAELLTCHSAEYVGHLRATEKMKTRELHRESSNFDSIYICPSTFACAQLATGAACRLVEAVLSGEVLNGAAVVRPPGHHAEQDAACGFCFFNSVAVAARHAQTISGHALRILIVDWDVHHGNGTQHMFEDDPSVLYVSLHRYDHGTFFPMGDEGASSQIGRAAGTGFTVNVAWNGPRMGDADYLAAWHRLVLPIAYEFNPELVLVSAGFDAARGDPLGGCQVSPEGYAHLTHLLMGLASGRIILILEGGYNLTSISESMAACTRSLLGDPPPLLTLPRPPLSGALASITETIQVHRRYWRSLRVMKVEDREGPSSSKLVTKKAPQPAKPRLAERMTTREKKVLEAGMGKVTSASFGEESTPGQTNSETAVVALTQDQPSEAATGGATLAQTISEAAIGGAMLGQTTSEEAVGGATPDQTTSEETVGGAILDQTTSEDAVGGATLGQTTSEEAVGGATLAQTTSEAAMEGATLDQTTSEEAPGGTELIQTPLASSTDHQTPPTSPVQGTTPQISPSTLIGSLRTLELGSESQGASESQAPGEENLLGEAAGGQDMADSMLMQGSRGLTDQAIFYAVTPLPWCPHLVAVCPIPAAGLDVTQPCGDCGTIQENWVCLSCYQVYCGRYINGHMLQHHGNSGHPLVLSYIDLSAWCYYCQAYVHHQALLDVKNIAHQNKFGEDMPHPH

[20] = test system: MDA-MB-436; assay: Induction of intracellular ROS generation in human MDA-MB-436 cells assessed as increase in ROS level by DCFH-DA staining based microscopic analysis; format: functional, cell-based; conditions: dose 1.25-5 µM, DDE = dose-dependent effect
[21] = test system: HUVEC; assay: Antiangiogenesis activity in HUVEC cells assessed as damage in vascular tube structure at 5 to 10 uM by tube formation assay; format: functional, cell-based; conditions: Homo sapiens, dose 5-10 µM

Chain of Poly [ADP-ribose] polymerase 1 (P09874 whole entry): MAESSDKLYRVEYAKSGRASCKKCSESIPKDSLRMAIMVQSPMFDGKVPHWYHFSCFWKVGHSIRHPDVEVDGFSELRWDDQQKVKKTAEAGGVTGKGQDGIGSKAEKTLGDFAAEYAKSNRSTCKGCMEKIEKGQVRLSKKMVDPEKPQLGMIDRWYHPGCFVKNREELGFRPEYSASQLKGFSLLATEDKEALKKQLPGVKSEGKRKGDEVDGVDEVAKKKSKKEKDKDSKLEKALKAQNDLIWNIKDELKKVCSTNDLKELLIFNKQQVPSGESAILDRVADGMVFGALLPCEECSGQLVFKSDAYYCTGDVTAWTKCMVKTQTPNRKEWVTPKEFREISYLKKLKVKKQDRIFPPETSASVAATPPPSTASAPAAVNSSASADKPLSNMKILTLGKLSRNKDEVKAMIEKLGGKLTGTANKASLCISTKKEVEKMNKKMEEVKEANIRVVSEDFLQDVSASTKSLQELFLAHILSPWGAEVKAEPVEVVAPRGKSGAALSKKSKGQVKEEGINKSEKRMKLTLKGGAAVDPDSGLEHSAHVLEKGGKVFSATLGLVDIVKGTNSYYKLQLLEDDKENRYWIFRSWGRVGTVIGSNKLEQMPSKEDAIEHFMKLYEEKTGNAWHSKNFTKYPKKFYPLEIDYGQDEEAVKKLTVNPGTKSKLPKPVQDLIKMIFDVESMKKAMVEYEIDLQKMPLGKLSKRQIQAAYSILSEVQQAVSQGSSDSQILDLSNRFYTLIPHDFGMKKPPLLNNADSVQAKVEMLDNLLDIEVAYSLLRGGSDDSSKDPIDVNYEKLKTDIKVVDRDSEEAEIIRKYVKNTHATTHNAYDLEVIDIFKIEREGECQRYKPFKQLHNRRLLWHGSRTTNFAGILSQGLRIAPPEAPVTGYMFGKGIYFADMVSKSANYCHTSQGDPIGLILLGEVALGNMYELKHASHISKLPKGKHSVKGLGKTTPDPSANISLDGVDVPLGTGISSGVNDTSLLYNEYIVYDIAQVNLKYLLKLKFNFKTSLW
Chain of Vascular endothelial growth factor receptor 2 (P35968 whole entry): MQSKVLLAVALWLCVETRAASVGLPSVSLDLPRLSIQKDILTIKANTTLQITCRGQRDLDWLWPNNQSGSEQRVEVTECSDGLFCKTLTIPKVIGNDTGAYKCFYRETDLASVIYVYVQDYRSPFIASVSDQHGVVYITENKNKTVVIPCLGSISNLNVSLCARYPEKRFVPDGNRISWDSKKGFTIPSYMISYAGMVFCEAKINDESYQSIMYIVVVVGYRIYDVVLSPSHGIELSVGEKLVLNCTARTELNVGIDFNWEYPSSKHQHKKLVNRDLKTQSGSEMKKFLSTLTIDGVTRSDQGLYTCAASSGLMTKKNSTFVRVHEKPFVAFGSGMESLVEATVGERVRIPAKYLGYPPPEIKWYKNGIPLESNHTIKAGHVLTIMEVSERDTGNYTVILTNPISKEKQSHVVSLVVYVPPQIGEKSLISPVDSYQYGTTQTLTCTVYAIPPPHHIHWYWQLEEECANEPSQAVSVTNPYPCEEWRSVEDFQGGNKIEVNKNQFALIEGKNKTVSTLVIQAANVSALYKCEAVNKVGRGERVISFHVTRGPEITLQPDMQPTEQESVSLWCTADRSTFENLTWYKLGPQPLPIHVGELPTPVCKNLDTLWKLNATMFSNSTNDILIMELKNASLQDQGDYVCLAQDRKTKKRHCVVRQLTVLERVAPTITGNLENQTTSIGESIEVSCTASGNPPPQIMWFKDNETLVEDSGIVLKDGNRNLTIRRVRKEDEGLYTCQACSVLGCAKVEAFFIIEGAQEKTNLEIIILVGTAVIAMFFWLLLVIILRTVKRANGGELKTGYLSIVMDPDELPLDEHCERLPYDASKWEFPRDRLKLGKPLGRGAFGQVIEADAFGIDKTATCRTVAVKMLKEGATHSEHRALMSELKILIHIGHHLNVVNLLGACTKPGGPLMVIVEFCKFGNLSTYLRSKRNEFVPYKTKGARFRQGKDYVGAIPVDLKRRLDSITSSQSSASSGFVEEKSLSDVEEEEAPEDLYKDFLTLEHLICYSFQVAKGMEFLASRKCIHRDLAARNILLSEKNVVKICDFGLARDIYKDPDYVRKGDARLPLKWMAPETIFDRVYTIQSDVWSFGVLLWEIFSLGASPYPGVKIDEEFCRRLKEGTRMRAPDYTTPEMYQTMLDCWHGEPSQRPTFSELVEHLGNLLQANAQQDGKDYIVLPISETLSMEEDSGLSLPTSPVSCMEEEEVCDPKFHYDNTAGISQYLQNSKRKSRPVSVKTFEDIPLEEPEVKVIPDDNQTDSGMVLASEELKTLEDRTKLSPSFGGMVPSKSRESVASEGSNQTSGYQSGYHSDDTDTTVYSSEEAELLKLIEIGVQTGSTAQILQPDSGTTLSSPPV
Chain of Histone deacetylase 2 (Q92769 whole entry): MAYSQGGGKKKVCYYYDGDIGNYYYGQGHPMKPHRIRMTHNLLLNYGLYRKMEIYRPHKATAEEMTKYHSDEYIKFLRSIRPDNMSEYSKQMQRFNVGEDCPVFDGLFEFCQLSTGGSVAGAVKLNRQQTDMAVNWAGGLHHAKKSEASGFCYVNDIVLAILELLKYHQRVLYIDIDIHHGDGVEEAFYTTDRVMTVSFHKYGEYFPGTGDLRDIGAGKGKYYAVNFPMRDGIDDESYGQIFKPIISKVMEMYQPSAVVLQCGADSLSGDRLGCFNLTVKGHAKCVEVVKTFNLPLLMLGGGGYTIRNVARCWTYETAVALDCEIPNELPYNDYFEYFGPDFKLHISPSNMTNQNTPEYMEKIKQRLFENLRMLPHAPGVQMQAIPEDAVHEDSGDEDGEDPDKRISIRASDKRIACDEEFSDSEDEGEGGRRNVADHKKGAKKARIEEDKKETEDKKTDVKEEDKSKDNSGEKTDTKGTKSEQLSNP
Chain of Histone deacetylase 3 (O15379 whole entry): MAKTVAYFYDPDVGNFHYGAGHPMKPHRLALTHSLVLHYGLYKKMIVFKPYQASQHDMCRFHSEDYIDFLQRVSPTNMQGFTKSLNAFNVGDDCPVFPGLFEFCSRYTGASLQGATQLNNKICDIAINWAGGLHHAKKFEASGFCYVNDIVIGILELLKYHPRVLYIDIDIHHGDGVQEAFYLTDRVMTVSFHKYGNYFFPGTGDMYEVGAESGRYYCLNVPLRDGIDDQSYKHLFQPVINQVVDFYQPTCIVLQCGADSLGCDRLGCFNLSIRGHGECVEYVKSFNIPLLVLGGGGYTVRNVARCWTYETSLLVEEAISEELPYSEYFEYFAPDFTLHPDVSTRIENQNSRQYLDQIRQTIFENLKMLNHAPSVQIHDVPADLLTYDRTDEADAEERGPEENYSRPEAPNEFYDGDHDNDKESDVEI
Chain of Histone deacetylase 4 (P56524 whole entry): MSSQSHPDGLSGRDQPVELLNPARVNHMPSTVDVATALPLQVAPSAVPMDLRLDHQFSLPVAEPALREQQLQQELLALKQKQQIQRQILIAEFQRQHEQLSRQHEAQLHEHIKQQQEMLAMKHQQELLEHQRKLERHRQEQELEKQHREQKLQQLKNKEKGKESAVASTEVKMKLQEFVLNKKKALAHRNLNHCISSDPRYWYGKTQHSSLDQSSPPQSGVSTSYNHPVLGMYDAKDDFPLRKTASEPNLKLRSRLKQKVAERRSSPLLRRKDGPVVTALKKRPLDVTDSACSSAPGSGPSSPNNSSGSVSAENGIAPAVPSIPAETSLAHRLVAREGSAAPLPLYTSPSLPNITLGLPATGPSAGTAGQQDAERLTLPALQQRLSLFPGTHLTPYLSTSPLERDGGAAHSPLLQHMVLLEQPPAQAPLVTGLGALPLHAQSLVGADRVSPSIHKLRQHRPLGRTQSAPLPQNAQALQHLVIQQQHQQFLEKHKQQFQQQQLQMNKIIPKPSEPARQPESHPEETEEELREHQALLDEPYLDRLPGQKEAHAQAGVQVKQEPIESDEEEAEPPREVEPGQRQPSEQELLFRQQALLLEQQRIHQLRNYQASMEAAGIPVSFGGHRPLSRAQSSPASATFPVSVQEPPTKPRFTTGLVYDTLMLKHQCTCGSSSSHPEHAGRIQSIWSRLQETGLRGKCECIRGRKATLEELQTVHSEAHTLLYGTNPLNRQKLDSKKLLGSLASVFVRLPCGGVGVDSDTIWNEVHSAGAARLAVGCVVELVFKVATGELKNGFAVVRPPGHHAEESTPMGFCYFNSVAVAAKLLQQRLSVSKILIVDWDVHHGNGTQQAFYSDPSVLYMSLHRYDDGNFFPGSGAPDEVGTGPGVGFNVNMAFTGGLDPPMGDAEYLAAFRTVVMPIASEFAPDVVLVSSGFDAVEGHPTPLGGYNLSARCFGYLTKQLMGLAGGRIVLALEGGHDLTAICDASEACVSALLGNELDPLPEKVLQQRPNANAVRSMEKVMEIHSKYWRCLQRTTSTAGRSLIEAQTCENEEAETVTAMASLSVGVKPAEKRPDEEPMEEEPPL

Structure (SMILES) | IC50 [2] [µM] | IC50 [3] [µM] | IC50 [4] [µM] | IC50 [6] [µM] | IC50 [7] [µM] | IC50 [8] [µM] | IC50 [1] [µM] | IC50 [5] [µM] | also measured
NC(=O)c1cccc2cn(-c3ccc(OCCCCC(=O)NO)cc3)nc12 | 2.41 | > 30 | 0.102 |  |  |  | 3.64 |  | 
NC(=O)c1cccc2cn(-c3ccc(OCCCC(=O)NO)cc3)nc12 | 9.93 | > 30 | 0.102 |  |  |  | 12.7 |  | 
NC(=O)/C=C/c1ccc(COc2ccc(-c3nc4c(C(N)=O)cccc4[nH]3)cc2)cc1 | 0.69 | 7.9 | 0.0274 | 7.72 | 4.7 | 2.88 | 1.37 | 5.63 | 
NC(=O)c1ccc(COc2ccc(-n3cc4cccc(C(N)=O)c4n3)cc2)cc1 | 0.35 | 10.8 | 0.0689 | 5.67 | 3.38 | 2.85 | 1.16 | 4.53 | Activity [9]: Active; inhibition [10]: Active; IC50 [11]: 42.1 µM; IC50 [12]: 5.41 µM; IC50 [13]: 7.22 µM; IC50 [14]: > 100 µM; IC50 [15]: 0.00592 µM; Activity [16]: Active; IC50 [17]: > 100 µM; Activity [18]: Active; IC50 [19]: 0.54 µM; Activity [20]: Dde; Activity [21]: Active
NC(=O)c1ccc(COc2ccc(-c3nc4c(C(N)=O)cccc4[nH]3)cc2)cc1 | 1.08 | 7.7 | 0.031 | 16.4 | 8.56 | 4.05 | 1.16 | 26.4 | 
O=C(c1cc(Cc2n[nH]c(=O)c3ccccc23)ccc1F)N1CCN(C(=O)C2CC2)CC1 [OLAPARIB] | 0.69 |  |  | 5.89 | 11.4 | > 30 | 2.05 | 1.67 | 
NC(=O)/C=C/c1ccc(COc2ccc(-n3cc4cccc(C(N)=O)c4n3)cc2)cc1 | 0.34 | 10.6 | 0.227 | 6.98 | 3.59 | 1.92 | 0.42 | 6.55 | IC50 [11]: 31 µM; IC50 [12]: 26 µM; IC50 [13]: 2.19 µM; IC50 [14]: > 100 µM; IC50 [15]: 0.0034 µM; IC50 [17]: > 100 µM; IC50 [19]: 0.51 µM

Further lines, with some results ahead:

IC50 [2] [µM] | IC50 [3] [µM] | IC50 [4] [µM] | IC50 [6] [µM] | IC50 [7] [µM] | IC50 [8] [µM] | Structure (SMILES) | IC50 [1] [µM] | IC50 [5] [µM] | also measured
> 30 | 7 | 0.038 |  |  |  | NC(=O)c1cccc2[nH]c(-c3ccc(OCCCCCCC(=O)NO)cc3)nc12 | > 30 |  | 
> 30 | 13.7 | 0.245 |  |  |  | NC(=O)c1cccc2cn(-c3ccc(OCCCCCCCC(=O)NO)cc3)nc12 | 6.15 |  | 
> 30 | 5.5 | 0.0202 |  |  |  | NC(=O)c1cccc2[nH]c(-c3ccc(OCCCCCC(=O)NO)cc3)nc12 | > 30 |  | 
> 30 | > 30 | 0.0121 |  |  |  | NC(=O)c1cccc2[nH]c(-c3ccc(OCCCCC(=O)NO)cc3)nc12 | > 30 |  | 
> 30 | > 30 | 0.128 |  |  |  | NC(=O)c1cccc2cn(-c3ccc(OCCCCCCC(=O)NO)cc3)nc12 | 1.57 |  | 
4.28 | > 30 | 0.285 |  |  |  | NC(=O)c1cccc2cn(-c3ccc(OCCCCCC(=O)NO)cc3)nc12 | 1.68 |  | 
> 30 | > 30 | 0.0475 |  |  |  | NC(=O)c1cccc2[nH]c(-c3ccc(OCCCCCCCC(=O)NO)cc3)nc12 | > 30 |  | 
> 30 | > 30 | 0.0142 |  |  |  | NC(=O)c1cccc2[nH]c(-c3ccc(OCCCC(=O)NO)cc3)nc12 | > 30 |  | 

Reference: ChEMBL document CHEMBL5113426, “Design, synthesis and antitumor activity study of PARP-1/HDAC dual targeting inhibitors” (Bioorg Med Chem Lett, 2022)
